Test results: ChEMBL document CHEMBL6078673, “Synthesis and anti-tumor activity of menthylamine derivatives: Focusing on the potent inhibitory effect of compound W8 on glioma growth” (Bioorg Med Chem, 2025)
Converted amounts (≈) assume the structure as drawn. The source made the active and inactive calls. The calls are words filed in the database; no cut-off is given here.

Legend:
[1] = Apparent permeability across apical to basolateral side in human Caco-2 cells at 2 uM incubated for 2 hrs by LC-MS/MS analysis; type: ADME, cell-based; conditions: for Papp A→B at 2 h, 2 µM: Caco-2; for Papp: caco-2, 2 h, 2 µM
[2] = Metabolic stability in liver microsomes (unknown origin) assessed as half life incubated for 60 mins by LC-MS/MS analysis; type: ADME, Microsome
[3] = Metabolic stability in liver microsomes (unknown origin) assessed as compound remaining incubated for 60 mins by LC-MS/MS analysis; type: ADME, Microsome; conditions: read-out: Stability
HCT-116 = assay: Antiproliferative activity against human HCT-116 cells assessed as inhibition of cell growth incubated for 24 hrs by CCK-8 assay; type: functional, cell-based; conditions: HCT-116, 24 h
MCF7 = assay: Antiproliferative activity against human MCF7 cells assessed as inhibition of cell growth incubated for 24 hrs by CCK-8 assay; type: functional, cell-based; conditions: MCF7, 24 h
U-87 MG [4] = assay: Induction of cell cycle arrest in human U87 cells assessed as increase in number of cells at G2 phase at 80 uM incubated for 24 hrs by RNase/PI staining based flow cytometry; type: functional; conditions: U-87MG ATCC
[5] = Kinetic solubility in PBS at pH 7.4 incubated under shaking condition for 24 hrs by LC-MS/MS analysis; type: physicochemical; conditions: read-out: Kinetic_solubility
[6] = Apparent permeability across basolateral to apical side in human Caco-2 cells at 2 uM incubated for 2 hrs by LC-MS/MS analysis; type: ADME, cell-based; conditions: for Papp: caco-2, 2 h, 2 µM; for Papp B→A at 2 h, 2 µM: Caco-2
U-87 MG [7] = assay: Induction of cell cycle arrest in human U87 cells assessed as increase in number of cells at G1 phase at 80 uM incubated for 24 hrs by RNase/PI staining based flow cytometry; type: functional; conditions: U-87MG ATCC
U-87 MG [8] = assay: Induction of apoptosis in human U87 cells at 80 uM incubated for 24 hrs by Annexin V-FITC/PI staining based flow cytometry; type: functional
KYSE-150 cell line = assay: Antiproliferative activity against human KYSE-150 cell line assessed as inhibition of cell growth incubated for 24 hrs by CCK-8 assay; type: functional, cell-based; conditions: KYSE-150, 24 h
U-87 MG [9] = assay: Antiproliferative activity against human U87 cells assessed as inhibition of cell growth incubated for 24 hrs by CCK-8 assay; type: functional, cell-based, U-87MG ATCC
[10] = Efflux ratio of apparent permeability from basolateral to apical side over apical to basolateral side in human Caco-2 cells at 2 uM incubated for 2 hr by LC-MS/MS analysis; type: ADME, cell-based; conditions: for Ratio: caco-2, 2 h, 2 µM; for efflux ratio at 2 h, 2 µM: Caco-2
U-87 MG [11] = assay: Inhibition of cell migration in human U87 cells at 80 uM incubated for 48 hrs by scratch assay; type: functional, cell-based; conditions: U-87MG ATCC
U-87 MG [12] = assay: Induction of apoptosis in human U87 cells assessed as increase in number of apoptotic cells at 80 uM incubated for 24 hrs by Annexin V-FITC/PI staining based flow cytometry; type: functional, cell-based; conditions: U-87MG ATCC
U-87 MG [13] = assay: Induction of cell cycle arrest in human U87 cells assessed as decrease in number of cells at S phase at 80 uM incubated for 24 hrs by RNase/PI staining based flow cytometry; type: functional; conditions: U-87MG ATCC
U-87 MG [14] = assay: Induction of cell cycle arrest in human U87 cells assessed as increase in number of cells at S phase at 80 uM incubated for 24 hrs by RNase/PI staining based flow cytometry; type: functional; conditions: U-87MG ATCC
U-87 MG [15] = assay: Induction of cell cycle arrest in human U87 cells assessed as decrease in number of cells at G1 phase at 80 uM incubated for 24 hrs by RNase/PI staining based flow cytometry; type: functional; conditions: U-87MG ATCC
U-87 MG [16] = assay: Induction of cell cycle arrest in human U87 cells assessed as decrease in number of cells at G2 phase at 80 uM incubated for 24 hrs by RNase/PI staining based flow cytometry; type: functional; conditions: U-87MG ATCC

SMILES | Papp A→B at 2 h, 2 µM [1] | half-life [2] | remaining at 1 h [3] | IC50 (HCT-116) | IC50 (MCF7) | solubility kinetic at 24 h [5] | Activity (U-87 MG [8]; U-87MG ATCC) | IC50 (KYSE-150 cell line) | IC50 (U-87 MG [9]) | inhibition (U-87 MG [11]) | Activity (U-87 MG [12]) | Activity (U-87 MG [14]) | Activity (U-87 MG [15]) | Activity (U-87 MG [16]) | Papp B→A at 2 h, 2 µM [6] | efflux ratio at 2 h, 2 µM [10] | other results
CC(C)(C)NCC(O)COc1cccc2c1CC(O)C(O)C2 (centres undefined) [NADOLOL] | 0.04 ×10⁻⁶ cm/s |  |  |  |  |  |  |  |  |  |  |  |  |  |  |  | 
O=C(O)Cc1ccccc1Nc1c(Cl)cccc1Cl [DICLOFENAC] |  | 5.32 min | 97.8% |  |  |  |  |  |  |  |  |  |  |  |  |  | 
CC(C)[C@H]1CC[C@H](C)C[C@H]1N |  | > 145 min | 81.8% | 630 µM | > 1260 µM | 0.625 µM (≈ 0.0971 µg/mL) | Active | > 3280 µM | 317 µM | Active | Active; Significantly Increased Activity Observed |  |  |  |  |  | Activity (U-87 MG [4]): Active; Papp [6]: 22.23 10^-6 cm/s; Papp [1]: 23.47 10^-6 cm/s; Activity (U-87 MG [7]): Active; Ratio [10]: 0.55; Activity (U-87 MG [13]): Active
COCCc1ccc(OCC(O)CNC(C)C)cc1 (centres undefined) [METOPROLOL] | 25.1 ×10⁻⁶ cm/s |  |  |  |  |  |  |  |  |  |  |  |  |  |  |  | 
CC(C)[C@H]1CC[C@H](C)C[C@@H]1O [RACEMENTHOL] |  |  |  | 1140 µM | 3680 µM |  |  | 3650 µM | 679 µM | Active | inactive | inactive | inactive | inactive |  |  | 
CC(C)[C@@H]1CC[C@@H](C)C[C@H]1OC(=O)c1ccc([N+](=O)[O-])cc1 | 24 ×10⁻⁶ cm/s | 25.2 min | 32.6% | 649 µM | 907 µM | 0.61 µM (≈ 0.186 µg/mL) | Active | > 3130 µM | 92.7 µM | Active | Active; Significantly Increased Activity Observed | inactive | inactive | inactive | 11.2 ×10⁻⁶ cm/s | 0.48 | 
C[C@H]1O[C@@H](O[C@H]2[C@@H](O)C[C@H](O[C@H]3[C@@H](O)C[C@H](O[C@H]4CC[C@@]5(C)[C@H](CC[C@@H]6[C@@H]5C[C@@H](O)[C@]5(C)[C@@H](C7=CC(=O)OC7)CC[C@]65O)C4)O[C@@H]3C)O[C@@H]2C)C[C@H](O)[C@@H]1O [DIGOXIN] | 0.15 ×10⁻⁶ cm/s |  |  |  |  |  |  |  |  |  |  |  |  |  | 18.6 ×10⁻⁶ cm/s | 127 | 
CC(C)[C@H]1CC[C@@H](C)C[C@@H]1N |  | > 145 min | 75.4% | > 318 µM | > 6450 µM | 150 µM (≈ 23.3 µg/mL) | Active | > 6450 µM | 1740 µM | Active | Active; Significantly Increased Activity Observed |  |  |  |  |  | Activity (U-87 MG [4]): Active; Papp [6]: 23.22 10^-6 cm/s; Papp [1]: 40.16 10^-6 cm/s; Activity (U-87 MG [7]): Active; Ratio [10]: 0.5; Activity (U-87 MG [13]): Active
CC(C)[C@H]1CC[C@H](C)C[C@H]1N1C(=O)c2ccccc2C1=O | 25.7 ×10⁻⁶ cm/s | > 145 min | 80.4% | 57.2 µM | 1490 µM | 0.03 µM (≈ 0.00856 µg/mL) | Active | > 972 µM | 65.3 µM | Active | Active; Significantly Increased Activity Observed |  |  |  | 12.6 ×10⁻⁶ cm/s | 0.52 | Activity (U-87 MG [4]): Active; Activity (U-87 MG [7]): Active; Activity (U-87 MG [13]): Active
CC(C)[C@@H]1CC[C@@H](C)C[C@H]1O [LEVOMENTHOL] |  |  |  | 771 µM | 1250 µM |  |  | 784 µM | 198 µM | Active | inactive | inactive | inactive | inactive |  |  | 
Cn1nnc2c(C(N)=O)ncn2c1=O [TEMOZOLOMIDE] |  |  |  |  |  |  |  |  | 1500 µM |  |  |  |  |  |  |  | 
CC(C)[C@@H]1CC[C@@H](C)C[C@@H]1OC(=O)c1ccc([N+](=O)[O-])cc1 | 24.4 ×10⁻⁶ cm/s | 25 min | 33.3% | 787 µM | 2670 µM | 0.031 µM (≈ 0.00947 µg/mL) | Active | 3510 µM | 109 µM | Active | Active; Significantly Increased Activity Observed | inactive | inactive | inactive | 12.1 ×10⁻⁶ cm/s | 0.51 | 
CC(C)[C@H]1CC[C@@H](C)C[C@H]1N | 41.8 ×10⁻⁶ cm/s | > 145 min | 79.4% | 848 µM | 3510 µM | 147 µM (≈ 22.8 µg/mL) |  | 4240 µM | 224 µM | Active | Active; Significantly Increased Activity Observed | Active | Active | Active | 24.7 ×10⁻⁶ cm/s | 0.59 | Activity (U-87 MG [8]): 90%
CC(C)[C@H]1CC[C@H](C)C[C@@H]1N | 46 ×10⁻⁶ cm/s | > 145 min | 79.4% | 6450 µM | 6450 µM | 146 µM (≈ 22.6 µg/mL) |  | 6450 µM | 3210 µM | Active | Active; Significantly Increased Activity Observed | inactive | inactive | inactive | 23.5 ×10⁻⁶ cm/s | 0.53 | Activity (U-87 MG [8]): 90%
C[C@]12CC[C@H]3[C@@H](CCC4=CC(=O)CC[C@@]43C)[C@@H]1CC[C@@H]2O [TESTOSTERONE] |  |  | 91% |  |  |  |  |  |  |  |  |  |  |  |  |  | 
